Laboratory results reported in US7015215B2, “Pyrrolo[2,1-c][1,4] benzodiazepines compounds and process thereof” (Council of Scientific and Industrial Research, priority 2003, dated 2006).

Experiments:
MDA-MB-231/ATCC = assay: NCI SRB cytotoxicity, Breast MDA-MB-231/ATCC; type: cell-based, human; conditions: 48 h
Protocol: (§1) Biological Activity: In vitro biological activity studies were carried out at National Cancer Institute (U.S.A.).
(§2) For each compound, dose response curves for each cell line were measured at a minimum of five concentrations at 10 fold dilutions. A protocol of 48 h continuous drug exposure was used, and a sulforhodamine B (SRB) protein assay was used to estimate cell viability or growth. The concentration causing 50% cell growth inhibition (GI50), total cell growth inhibition (TGI, 0% growth) and 50% cell death (LC50, −50% growth) compared with the control was calculated.

MALME-3M = assay: NCI SRB cytotoxicity, Melanoma MALME-3M; type: cell-based, human; conditions: 48 h
Protocol: as §1, §2

OVCAR-3 = assay: NCI SRB cytotoxicity, Ovarian OVCAR-3; type: cell-based, human; conditions: OVCAR-3, Ovarian, 48 h
Protocol: as §1, §2

SF-268 = assay: NCI SRB cytotoxicity, CNS SF-268; type: cell-based, human; conditions: SF-268, CNS, 48 h
Protocol: as §1, §2

SF-539 = assay: NCI SRB cytotoxicity, CNS SF-539; type: cell-based, human; conditions: SF-539, CNS, 48 h
Protocol: as §1, §2

NCI-H226 = assay: NCI SRB cytotoxicity, Non-small-cell lung NCI-H226; type: cell-based, human; conditions: 48 h
Protocol: as §1, §2

NCI-H460 = assay: NCI SRB cytotoxicity, Non-small-cell lung NCI-H460; type: cell-based, human; conditions: 48 h
Protocol: as §1, §2

human tumor cell lines = assay: NCI in vitro cytotoxicity SRB assay, mean graph midpoints over the panel; type: cell-based; conditions: 48 h continuous exposure
Protocol: as §1, §2

HL-60(TB) = conditions: Leukemia, 48 h, SRB
Protocol: as §1, §2

HOP-92 = assay: NCI SRB cytotoxicity, Non-small-cell lung HOP-92; type: cell-based, human; conditions: HOP-92, Non-small-cell lung, 48 h
Protocol: as §1, §2

RPMI-8226 = assay: NCI SRB cytotoxicity, Leukemia RPMI-8226; type: cell-based, human; conditions: RPMI-8226, Leukemia, 48 h
Protocol: as §2

IGROVI = assay: NCI SRB cytotoxicity, Ovarian IGROVI; type: cell-based, human; conditions: 48 h
DU-145 = assay: NCI SRB cytotoxicity, Prostate DU-145; type: cell-based, human; conditions: DU-145, Prostate, 48 h
Protocol: as §2

SNB-19 = assay: NCI SRB cytotoxicity, CNS SNB-19; type: cell-based, human; conditions: SNB-19, CNS, 48 h
Protocol: as §1, §2

MCF7 = assay: NCI SRB cytotoxicity, Breast MCF7; type: cell-based, human; conditions: 48 h
Protocol: as §1, §2

NCI/ADR-RES = assay: NCI SRB cytotoxicity, Breast NCI/ADR-RES; type: cell-based, human; conditions: 48 h
Protocol: as §1, §2

M14 = assay: NCI SRB cytotoxicity, Melanoma M14; type: cell-based, human; conditions: 48 h
Protocol: as §1, §2

HCT-15 = assay: NCI SRB cytotoxicity, Colon HCT-15; type: cell-based, human; conditions: HCT-15, Colon, 48 h
Protocol: as §1, §2

A549/ATCC = assay: NCI SRB cytotoxicity, Non-small-cell lung A549/ATCC; type: cell-based, human; conditions: 48 h
Protocol: as §1, §2

NCI-H322 = assay: NCI SRB cytotoxicity, Non-small-cell lung NCI-H322; type: cell-based, human; conditions: 48 h
Protocol: as §1, §2

SK-OV-3 = assay: NCI SRB cytotoxicity, Ovarian SK-OV-3; type: cell-based, human; conditions: SK-OV-3, Ovarian, 48 h
Protocol: as §1, §2

LOXIMVI = assay: NCI SRB cytotoxicity, Melanoma LOXIMVI; type: cell-based, human; conditions: 48 h
Protocol: as §1, §2

COc1cc2c(cc1OCCCN1CCN(CCCOc3cc4c(cc3OC)C(=O)N3CCC[C@H]3C=N4)CC1)N=C[C@@H]1CCCN1C2=O [Compound VIb, 1,1′-{[(bispropane-1,N-diyl)piperazine]dioxy}bis[(11aS)-7-methoxy-1,2,3,11a-tetrahydro-5H-pyrrolo[2,1-c][1,4]benzodiazepin-5-one]]
Log GI 50 (MDA-MB-231/ATCC): −4.52 mol/L | Log LC 50 (MDA-MB-231/ATCC): −4.00 mol/L | Log GI 50 (MALME-3M): −5.39 mol/L | Log GI 50 (OVCAR-3): −5.47 mol/L | Log LC 50 (OVCAR-3): −4.00 mol/L | Log GI 50 (SF-268): −5.52 mol/L | Log GI 50 (SF-539): −6.21 mol/L | Log LC 50 (SF-539): −4.00 mol/L | Log GI 50 (NCI-H226): −4.34 mol/L | Log LC 50 (NCI-H226): −4.00 mol/L | Log GI 50 (NCI-H460): −5.37 mol/L | Log LC 50 (NCI-H460): −4.00 mol/L | Log10 GI50 mean graph midpoint (MG_MID) (human tumor cell lines): −5.19 | Log10 LC50 mean graph midpoint (MG_MID) (human tumor cell lines): −4.01 | Log10 TGI mean graph midpoint (MG_MID) (human tumor cell lines): −4.22 | Log GI 50 (HL-60(TB)): −6.66 mol/L | Log LC 50 (HL-60(TB)): −4.00 mol/L | Log GI 50 (HOP-92): −6.81 mol/L | Log LC 50 (HOP-92): −4.00 mol/L | Log GI 50 (RPMI-8226): −6.73 mol/L | Log LC 50 (RPMI-8226): −4.00 mol/L | Log GI 50 (IGROVI): −5.26 mol/L | Log LC 50 (IGROVI): −4.00 mol/L | Log GI 50 (DU-145): −5.62 mol/L | Log LC 50 (DU-145): −4.00 mol/L | Log GI 50 (SNB-19): −5.06 mol/L | Log LC 50 (SNB-19): −4.00 mol/L | Log GI 50 (MCF7): −6.01 mol/L | Log LC 50 (MCF7): −4.00 mol/L | Log GI 50 (NCI/ADR-RES): −4.00 mol/L | Log LC 50 (NCI/ADR-RES): −4.00 mol/L | Log GI 50 (M14): −5.55 mol/L | Log LC 50 (M14): −4.00 mol/L | Log GI 50 (HCT-15): −4.25 mol/L | Log LC 50 (HCT-15): −4.00 mol/L | Log GI 50 (A549/ATCC): −4.37 mol/L | Log LC 50 (A549/ATCC): −4.00 mol/L | Log GI 50 (NCI-H322): −4.57 mol/L | Log LC 50 (NCI-H322): −4.00 mol/L

COc1cc2c(cc1OCCCCN1CCN(CCCCOc3cc4c(cc3OC)C(=O)N3CCC[C@H]3C=N4)CC1)N=C[C@@H]1CCCN1C2=O [Compound VIc, 1,1′-{[(bisbutane-1,N-diyl)piperazine]dioxy}bis[(11aS)-7-methoxy-1,2,3,11a-tetrahydro-5H-pyrrolo[2,1-c][1,4]benzodiazepin-5-one]]
Log GI 50 (MDA-MB-231/ATCC): −7.47 mol/L | Log LC 50 (MDA-MB-231/ATCC): −4.43 mol/L | Log LC 50 (MALME-3M): −7.41 mol/L | Log GI 50 (OVCAR-3): −7.91 mol/L | Log LC 50 (OVCAR-3): −4.00 mol/L | Log LC 50 (SF-268): −4.00 mol/L | Log LC 50 (SF-539): −4.00 mol/L | Log LC 50 (NCI-H226): −4.00 mol/L | Log LC 50 (NCI-H460): −4.00 mol/L | Log10 GI50 mean graph midpoint (MG_MID) (human tumor cell lines): −7.70 | Log10 LC50 mean graph midpoint (MG_MID) (human tumor cell lines): −4.47 | Log10 TGI mean graph midpoint (MG_MID) (human tumor cell lines): −5.95 | Log LC 50 (HL-60(TB)): −4.00 mol/L | Log LC 50 (HOP-92): −4.00 mol/L | Log GI 50 (RPMI-8226): −7.81 mol/L | Log LC 50 (RPMI-8226): −4.60 mol/L | Log LC 50 (SK-OV-3): −4.00 mol/L | Log GI 50 (IGROVI): −6.79 mol/L | Log LC 50 (IGROVI): −4.00 mol/L | Log GI 50 (DU-145): −7.60 mol/L | Log LC 50 (DU-145): −4.00 mol/L | Log LC 50 (SNB-19): −4.44 mol/L | Log LC 50 (MCF7): −4.00 mol/L | Log GI 50 (NCI/ADR-RES): −6.47 mol/L | Log LC 50 (NCI/ADR-RES): −4.00 mol/L | Log GI 50 (M14): −7.60 mol/L | Log LC 50 (M14): −4.17 mol/L | Log GI 50 (HCT-15): −7.92 mol/L | Log LC 50 (HCT-15): −6.37 mol/L | Log GI 50 (A549/ATCC): −7.23 mol/L | Log LC 50 (A549/ATCC): −4.00 mol/L | Log GI 50 (NCI-H322): −7.59 mol/L | Log LC 50 (NCI-H322): −4.00 mol/L

COc1cc2c(cc1OCCN1CCN(CCOc3cc4c(cc3OC)C(=O)N3CCC[C@H]3C=N4)CC1)N=C[C@@H]1CCCN1C2=O [Compound VIa, 1,1′-{[(bisethane-1,N-diyl)piperazine]dioxy}bis[(11aS)-7-methoxy-1,2,3,11a-tetrahydro-5H-pyrrolo[2,1-c][1,4]benzodiazepin-5-one]]
Log GI 50 (MDA-MB-231/ATCC): −4.67 mol/L | Log LC 50 (MDA-MB-231/ATCC): −4.00 mol/L | Log GI 50 (MALME-3M): −5.46 mol/L | Log LC 50 (MALME-3M): −4.17 mol/L | Log GI 50 (OVCAR-3): −4.68 mol/L | Log LC 50 (OVCAR-3): −4.00 mol/L | Log GI 50 (SF-268): −4.95 mol/L | Log LC 50 (SF-268): −4.00 mol/L | Log GI 50 (SF-539): −4.97 mol/L | Log LC 50 (SF-539): −4.00 mol/L | Log GI 50 (NCI-H226): −4.80 mol/L | Log LC 50 (NCI-H226): −4.00 mol/L | Log GI 50 (NCI-H460): −4.95 mol/L | Log LC 50 (NCI-H460): −4.00 mol/L | Log10 GI50 mean graph midpoint (MG_MID) (human tumor cell lines): −4.69 | Log10 LC50 mean graph midpoint (MG_MID) (human tumor cell lines): −4.03 | Log10 TGI mean graph midpoint (MG_MID) (human tumor cell lines): −4.16 | Log GI 50 (HL-60(TB)): −5.49 mol/L | Log LC 50 (HL-60(TB)): −4.00 mol/L | Log GI 50 (HOP-92): −4.68 mol/L | Log LC 50 (HOP-92): −4.00 mol/L | Log GI 50 (RPMI-8226): −6.08 mol/L | Log LC 50 (RPMI-8226): −4.33 mol/L | Log GI 50 (SK-OV-3): −4.00 mol/L | Log LC 50 (SK-OV-3): −4.00 mol/L | Log GI 50 (IGROVI): −4.21 mol/L | Log LC 50 (IGROVI): −4.00 mol/L | Log GI 50 (DU-145): −4.36 mol/L | Log LC 50 (DU-145): −4.00 mol/L | Log GI 50 (SNB-19): −4.75 mol/L | Log LC 50 (SNB-19): −4.00 mol/L | Log GI 50 (MCF7): −4.88 mol/L | Log LC 50 (MCF7): −4.00 mol/L | Log GI 50 (NCI/ADR-RES): −4.00 mol/L | Log LC 50 (NCI/ADR-RES): −4.00 mol/L | Log GI 50 (M14): −4.61 mol/L | Log GI 50 (HCT-15): −4.39 mol/L | Log LC 50 (HCT-15): −4.00 mol/L | Log GI 50 (A549/ATCC): −4.10 mol/L | Log LC 50 (A549/ATCC): −4.00 mol/L | Log GI 50 (NCI-H322): −4.51 mol/L | Log LC 50 (NCI-H322): −4.00 mol/L

COc1cc2c(cc1OCCCCCN1CCN(CCCCCOc3cc4c(cc3OC)C(=O)N3CCC[C@H]3C=N4)CC1)N=C[C@@H]1CCCN1C2=O [Compound VId]
Log GI 50 (MDA-MB-231/ATCC): −5.42 mol/L | Log LC 50 (MDA-MB-231/ATCC): −4.00 mol/L | Log GI 50 (OVCAR-3): −5.32 mol/L | Log LC 50 (OVCAR-3): −4.00 mol/L | Log GI 50 (SF-268): −5.44 mol/L | Log GI 50 (SF-539): −5.44 mol/L | Log LC 50 (SF-539): −4.00 mol/L | Log GI 50 (NCI-H226): −5.30 mol/L | Log LC 50 (NCI-H226): −4.00 mol/L | Log GI 50 (NCI-H460): −5.49 mol/L | Log LC 50 (NCI-H460): −4.00 mol/L | Log10 GI50 mean graph midpoint (MG_MID) (human tumor cell lines): −5.14 | Log10 LC50 mean graph midpoint (MG_MID) (human tumor cell lines): −4.04 | Log10 TGI mean graph midpoint (MG_MID) (human tumor cell lines): −4.26 | Log GI 50 (HL-60(TB)): −5.38 mol/L | Log LC 50 (HL-60(TB)): −4.00 mol/L | Log GI 50 (HOP-92): −5.46 mol/L | Log LC 50 (HOP-92): −4.00 mol/L | Log GI 50 (RPMI-8226): −5.59 mol/L | Log LC 50 (RPMI-8226): −4.54 mol/L | Log GI 50 (IGROVI): −5.13 mol/L | Log LC 50 (IGROVI): −4.00 mol/L | Log GI 50 (DU-145): −5.37 mol/L | Log LC 50 (DU-145): −4.00 mol/L | Log GI 50 (SNB-19): −4.00 mol/L | Log LC 50 (SNB-19): −4.00 mol/L | Log GI 50 (MCF7): −5.69 mol/L | Log LC 50 (MCF7): −4.00 mol/L | Log GI 50 (NCI/ADR-RES): −4.00 mol/L | Log LC 50 (NCI/ADR-RES): −4.00 mol/L | Log GI 50 (LOXIMVI): −5.61 mol/L | Log LC 50 (LOXIMVI): −4.00 mol/L | Log GI 50 (M14): −4.76 mol/L | Log GI 50 (HCT-15): −4.25 mol/L | Log LC 50 (HCT-15): −4.00 mol/L | Log GI 50 (A549/ATCC): −4.66 mol/L | Log LC 50 (A549/ATCC): −4.00 mol/L | Log GI 50 (NCI-H322): −4.65 mol/L | Log LC 50 (NCI-H322): −4.00 mol/L
